In assay [1] the target is ATR kinase, in the presence of partner proteins ATRIP, CLK2 and TopBP1 (Homo sapiens (Human), UniProt Q13535). The assay can be described thus: ATR-complex inhibition assay (radioactive-phosphate incorporation). Format: biochemical. The note with it: Ki(app); 4 nM full-length ATR, 40 nM ATRIP, 40 nM CLK2, 600 nM TopBP1; 10 μM ATP; 25° C. The procedure:
Compounds were screened for their ability to inhibit ATR kinase, in the presence of partner proteins ATRIP, CLK2 and TopBP1, using a radioactive-phosphate incorporation assay. Assays were carried out in a mixture of 50 mM Tris/HCl (pH 7.5), 10 mM MgCl2 and 1 mM DTT. Final substrate concentrations were 10 μM [g-33P]ATP (3.5 μCi 33P ATP/nmol ATP, Perkin Elmer, Massachusetts, USA) and 800 μM target peptide ([…]) (SEQ ID NO: 1); Isca Biochemicals, Cambridgeshire, UK).
Assays were carried out at 25° C. in the presence of 4 nM full-length ATR, 40 nM full-length ATRIP, 40 nM full-length CLK2 and 600 nM TopBP1 (A891-S1105). An enzyme stock buffer solution was prepared containing all of the reagents listed above, with the exception of target peptide, ATP and the test compound of interest. This enzyme stock was pre-incubated for 30 minutes at 25° C. 8.5 μL of the enzyme stock solution was placed in a 96-well plate followed by addition of 5 μl of target peptide and 2 μL of DMSO stock containing serial dilutions of the test compound (typically starting from a final concentration of 1.5 μM with 2.5-fold serial dilutions) in duplicate (final DMSO concentration 7%). The plate was pre-incubated for 10 minutes at 25° C. and the reaction initiated by addition of 15 μL [g-33P]ATP (final concentration 10 μM).
The reaction was stopped after […] by the addition of 30 μL 0.3 M phosphoric acid containing 2 mM ATP. A phosphocellulose filter 96-well plate (Multiscreen HTS MAPHNOB50, Merck-Millipore, Massachusetts, USA) was pretreated with 100 μL 0.1 M phosphoric acid prior to the addition of 45 μL of the stopped assay mixture. The plate was washed with 5×200 μL 0.1 M phosphoric acid. After drying, 50 μL Optiphase ‘SuperMix’ liquid scintillation cocktail (Perkin Elmer, Massachusetts, USA) was added to the well prior to scintillation counting (Wallac 1450 Microbeta Liquid Scintillation Counter, Perkin Elmer, Massachusetts, USA).
After removing mean background values for all of the data points, Ki(app) data were calculated from non-linear regression analysis of the initial rate data using the Prism software package (GraphPad Prism version 6.0c for Macintosh, GraphPad Software Inc., San Diego, USA).
Compounds with a Cisplatin sensitization value of <0.02 μM are marked with “+++.” Compounds with a Ki value >0.02 μM but <0.2 μM are marked with “++.” Compounds with a Ki value >0.2 μM but <5 μM are marked with “+.”

Assay [2] deals with ATR kinase (full-length ATR) (Homo sapiens (Human), UniProt Q13535). Kind of assay: ATR inhibition assay (radioactive-phosphate incorporation). Format: biochemical. The gist of the method:
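Ki(app) was fitted by non-linear regression to background-corrected initial rates. Full-length ATR (5 nM) phosphorylated 800 μM peptide using 10 μM [γ-33P]ATP at 25° C in Tris/HCl pH 7.5 buffer with MgCl2, DTT and 7% DMSO. After 10-minute compound pre-incubation and 24-hour reaction, phosphocellulose filters were scintillation counted.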

The subject of assay [3] is HCT116 colorectal cancer cells. Kind of assay: Cisplatin sensitization assay, 96 h cell viability (MTS). It is filed as cell-based. Conditions: 96 h MTS, concentration of compound required to reduce the IC50 of Cisplatin. As for the experimental part:
Compounds can be screened for their ability to sensitize HCT116 colorectal cancer cells to Cisplatin using a 96 h cell viability (MTS) assay. […] Compounds and Cisplatin are then both added simultaneously to the cell media in 2-fold serial dilutions from a top final concentration of 10 μM as a full matrix of concentrations in a final cell volume of 200 μl, and the cells are then incubated at 37° C. in 5% CO2. After 96 h, 40 μl of MTS reagent (Promega G358a) is added to each well and the cells are incubated for 1 h at 37° C. in 5% CO2.
Compounds with a Cisplatin sensitization value of <0.02 μM are marked with “+++.” Compounds with a Cisplatin sensitization value >0.02 μM but <0.2 μM are marked with “++.” Compounds with a Cisplatin sensitization value >0.2 μM but <5 μM are marked with “+.”

[4] abbreviates: Ki(app), 5 nM full-length ATR, 10 μM ATP, 25° C.

Read-outs that look alike come from different tables or passages of the source.

ATR kinase, in the presence of partner proteins ATRIP, CLK2 and TopBP1, sequence (Q13535 whole entry): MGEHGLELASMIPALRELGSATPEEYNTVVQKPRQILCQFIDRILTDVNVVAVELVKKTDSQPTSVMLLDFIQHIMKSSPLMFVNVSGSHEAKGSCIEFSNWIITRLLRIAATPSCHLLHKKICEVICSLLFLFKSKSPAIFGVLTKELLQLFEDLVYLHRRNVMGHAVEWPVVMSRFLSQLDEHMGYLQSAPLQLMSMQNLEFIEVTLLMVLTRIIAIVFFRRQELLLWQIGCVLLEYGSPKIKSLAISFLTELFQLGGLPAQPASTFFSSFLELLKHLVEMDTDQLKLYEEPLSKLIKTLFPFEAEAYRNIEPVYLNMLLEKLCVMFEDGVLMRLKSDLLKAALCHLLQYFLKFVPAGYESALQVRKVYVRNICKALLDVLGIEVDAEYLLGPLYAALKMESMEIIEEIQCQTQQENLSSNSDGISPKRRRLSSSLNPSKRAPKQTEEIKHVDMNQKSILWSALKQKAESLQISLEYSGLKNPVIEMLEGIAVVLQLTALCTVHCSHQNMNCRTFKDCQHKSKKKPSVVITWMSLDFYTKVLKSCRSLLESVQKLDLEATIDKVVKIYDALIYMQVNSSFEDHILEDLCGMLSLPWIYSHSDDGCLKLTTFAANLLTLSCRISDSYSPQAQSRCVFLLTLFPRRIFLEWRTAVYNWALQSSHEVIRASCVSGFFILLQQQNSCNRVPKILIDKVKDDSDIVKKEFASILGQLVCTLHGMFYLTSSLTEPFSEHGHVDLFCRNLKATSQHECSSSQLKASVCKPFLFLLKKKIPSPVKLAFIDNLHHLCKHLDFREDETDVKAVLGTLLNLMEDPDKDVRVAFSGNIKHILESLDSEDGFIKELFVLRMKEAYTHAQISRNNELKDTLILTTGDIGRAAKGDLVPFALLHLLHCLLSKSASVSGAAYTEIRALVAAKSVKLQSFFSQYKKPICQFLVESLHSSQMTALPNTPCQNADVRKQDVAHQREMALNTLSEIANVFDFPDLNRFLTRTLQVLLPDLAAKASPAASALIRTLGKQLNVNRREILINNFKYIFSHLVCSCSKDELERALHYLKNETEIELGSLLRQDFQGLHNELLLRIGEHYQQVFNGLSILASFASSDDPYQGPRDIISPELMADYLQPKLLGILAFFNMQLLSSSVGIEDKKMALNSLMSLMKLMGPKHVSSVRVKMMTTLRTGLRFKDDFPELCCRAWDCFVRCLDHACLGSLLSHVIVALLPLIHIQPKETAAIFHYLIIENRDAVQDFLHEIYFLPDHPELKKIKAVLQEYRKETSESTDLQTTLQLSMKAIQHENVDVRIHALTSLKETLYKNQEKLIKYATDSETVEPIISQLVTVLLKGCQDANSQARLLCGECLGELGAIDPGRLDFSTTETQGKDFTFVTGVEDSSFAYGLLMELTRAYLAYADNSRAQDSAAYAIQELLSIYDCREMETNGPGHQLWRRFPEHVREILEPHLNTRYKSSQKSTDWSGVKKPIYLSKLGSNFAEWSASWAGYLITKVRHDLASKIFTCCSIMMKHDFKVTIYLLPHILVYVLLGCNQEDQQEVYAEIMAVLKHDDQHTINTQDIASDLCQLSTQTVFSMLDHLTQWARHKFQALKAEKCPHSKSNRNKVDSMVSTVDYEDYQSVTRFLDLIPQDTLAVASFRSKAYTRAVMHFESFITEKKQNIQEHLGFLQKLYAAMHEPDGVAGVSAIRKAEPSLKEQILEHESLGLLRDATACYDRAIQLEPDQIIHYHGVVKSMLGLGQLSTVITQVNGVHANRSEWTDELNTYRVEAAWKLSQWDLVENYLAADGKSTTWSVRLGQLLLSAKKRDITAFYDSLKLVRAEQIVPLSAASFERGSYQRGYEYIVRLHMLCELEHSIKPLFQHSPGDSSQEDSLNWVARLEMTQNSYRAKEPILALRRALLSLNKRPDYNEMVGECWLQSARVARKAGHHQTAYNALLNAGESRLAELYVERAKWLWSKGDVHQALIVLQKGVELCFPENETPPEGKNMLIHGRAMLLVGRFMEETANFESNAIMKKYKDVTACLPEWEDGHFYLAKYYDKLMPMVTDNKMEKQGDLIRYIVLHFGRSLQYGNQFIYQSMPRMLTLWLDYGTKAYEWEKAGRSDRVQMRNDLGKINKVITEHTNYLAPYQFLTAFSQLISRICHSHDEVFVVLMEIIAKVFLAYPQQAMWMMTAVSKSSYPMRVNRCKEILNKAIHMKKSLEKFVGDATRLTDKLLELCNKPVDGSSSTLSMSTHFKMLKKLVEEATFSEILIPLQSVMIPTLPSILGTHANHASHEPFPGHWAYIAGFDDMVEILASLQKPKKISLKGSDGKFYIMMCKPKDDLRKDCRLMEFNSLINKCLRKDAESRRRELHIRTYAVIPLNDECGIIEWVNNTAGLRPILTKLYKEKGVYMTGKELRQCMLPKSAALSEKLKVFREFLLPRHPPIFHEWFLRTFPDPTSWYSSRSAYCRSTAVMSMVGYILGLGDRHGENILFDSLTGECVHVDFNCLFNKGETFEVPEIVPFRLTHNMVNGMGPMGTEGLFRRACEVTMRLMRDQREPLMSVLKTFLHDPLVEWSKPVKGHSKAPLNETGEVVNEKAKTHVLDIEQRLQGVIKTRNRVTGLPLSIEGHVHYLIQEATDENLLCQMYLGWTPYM
ATR kinase, in the presence of partner proteins ATRIP, CLK2 and TopBP1, sequence (Q8WXE1 whole entry partner): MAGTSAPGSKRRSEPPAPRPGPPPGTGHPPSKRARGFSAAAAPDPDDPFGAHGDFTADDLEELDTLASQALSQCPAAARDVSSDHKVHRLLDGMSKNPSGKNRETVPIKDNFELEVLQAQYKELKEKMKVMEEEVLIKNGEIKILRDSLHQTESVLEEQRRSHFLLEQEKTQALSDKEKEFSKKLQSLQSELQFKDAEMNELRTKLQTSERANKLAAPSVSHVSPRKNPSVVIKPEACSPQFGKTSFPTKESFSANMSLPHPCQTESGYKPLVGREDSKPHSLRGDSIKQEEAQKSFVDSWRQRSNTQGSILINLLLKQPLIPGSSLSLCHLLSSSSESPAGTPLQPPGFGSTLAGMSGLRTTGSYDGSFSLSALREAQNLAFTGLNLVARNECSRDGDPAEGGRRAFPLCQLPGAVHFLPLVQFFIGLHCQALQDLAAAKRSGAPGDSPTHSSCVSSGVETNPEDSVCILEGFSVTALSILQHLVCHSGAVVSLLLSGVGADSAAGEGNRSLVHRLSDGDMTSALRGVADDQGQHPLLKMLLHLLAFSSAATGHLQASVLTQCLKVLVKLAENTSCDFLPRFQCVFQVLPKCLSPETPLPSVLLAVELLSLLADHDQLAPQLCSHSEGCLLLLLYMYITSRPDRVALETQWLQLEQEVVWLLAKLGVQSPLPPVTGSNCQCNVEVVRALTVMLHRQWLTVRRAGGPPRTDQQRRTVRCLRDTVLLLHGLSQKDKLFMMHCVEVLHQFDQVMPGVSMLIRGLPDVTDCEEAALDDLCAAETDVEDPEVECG
ATR kinase (full-length ATR), sequence (Q13535 whole entry): as the sequence (Q13535 whole entry) above

For the molecule `CN1CCN(C(=O)c2ccc(-c3c(F)cncc3NC(=O)c3c(N)nn4cc(F)cnc34)cc2)CC1` [I-C-43, 2-amino-6-fluoro-N-(5-fluoro-4-(4-(4-methylpiperazine-1-carbonyl)phenyl)pyridin-3-yl)pyrazolo[1,5-a]pyrimidine-3-carboxamide], the Ki is < 20 nM in assay [1] and 10 to 1000 nM in assay [2] (setting [4]).

Regarding `CC(=O)N1CCN(c2c(F)cncc2NC(=O)c2c(N)nn3cc(F)cnc23)CC1` [I-N-275, N-(4-(4-acetylpiperazin-1-yl)-5-fluoropyridin-3-yl)-2-amino-6-fluoropyrazolo[1,5-a]pyrimidine-3-carboxamide], the Ki was < 20 nM in assay [1] and 10 to 1000 nM in assay [2] (setting [4]).

Consider `CN1CCN(S(=O)(=O)C2CCN(c3c(F)cncc3NC(=O)c3c(N)nn4cc(F)cnc34)CC2)CC1` [I-N-166, 2-amino-6-fluoro-N-(5-fluoro-4-(4-((4-methylpiperazin-1-yl)sulfonyl)piperidin-1-yl)pyridin-3-yl)pyrazolo[1,5-a]pyrimidine-3-carboxamide], for which the values for the Ki in assay [1] and in assay [2] (setting [4]) were < 20 nM and 10 to 1000 nM, respectively.

For `CN1CCN(C(=O)C2CCN(c3c(F)cncc3NC(=O)c3c(N)nn4cc(F)cnc34)CC2)CC1` [I-G-4, 2-amino-6-fluoro-N-(5-fluoro-4-(4-(4-methylpiperazine-1-carbonyl)piperidin-1-yl)pyridin-3-yl)pyrazolo[1,5-a]pyrimidine-3-carboxamide], the Ki in assay [1] was < 20 nM; in assay [2] (setting [4]), 10 to 1000 nM.

Turning to `Nc1nn2cc(F)cnc2c1C(=O)Nc1cncc(F)c1N1CCNCC1` [I-N-118, 2-amino-6-fluoro-N-(5-fluoro-4-(piperazin-1-yl)pyridin-3-yl)pyrazolo[1,5-a]pyrimidine-3-carboxamide], the values for the Ki in assay [1] and in assay [2] (setting [4]) were < 20 nM and 10 to 1000 nM, respectively.

Regarding `Cn1cncc1-c1c(F)cncc1NC(=O)c1c(N)nn2cc(F)cnc12` [I-C-79, 2-amino-6-fluoro-N-(5-fluoro-4-(1-methyl-1H-imidazol-5-yl)pyridin-3-yl)pyrazolo[1,5-a]pyrimidine-3-carboxamide], the Ki in assay [1] is < 20 nM; in assay [2] (setting [4]) it was 10 to 1000 nM.

For `Nc1nn2cc(Cl)cnc2c1C(=O)Nc1cnccc1N1CCN(C2COC2)CC1` [I-N-58, 2-amino-6-chloro-N-(4-(4-(oxetan-3-yl)piperazin-1-yl)pyridin-3-yl)pyrazolo[1,5-a]pyrimidine-3-carboxamide], the Ki is < 20 nM in assay [1] and 10 to 1000 nM in assay [2] (setting [4]).

Take `Nc1nn2cc(F)cnc2c1C(=O)Nc1cncc(F)c1N1CCN2C(=O)CC[C@@H]2C1` [I-N-186, (R)-2-amino-6-fluoro-N-(5-fluoro-4-(6-oxohexahydropyrrolo[1,2-a]pyrazin-2(1H)-yl)pyridin-3-yl)pyrazolo[1,5-a]pyrimidine-3-carboxamide]: the Ki is < 20 nM in assay [1] and 10 to 1000 nM in assay [2] (setting [4]).

`Nc1nn2cc(F)cnc2c1C(=O)Nc1cncc(F)c1N1CCN(C2COC2)CC1` [I-N-13, 2-amino-6-fluoro-N-(5-fluoro-4-(4-(oxetan-3-yl)piperazin-1-yl)pyridin-3-yl)pyrazolo[1,5-a]pyrimidine-3-carboxamide]: the Ki in assay [1] is < 20 nM; in assay [2] (setting [4]) it was 10 to 1000 nM.

Regarding `Nc1nn2cc(F)cnc2c1C(=O)Nc1cncc(F)c1N1CCC(C(=O)N2CCN(C3COC3)CC2)CC1` [I-G-32, 2-amino-6-fluoro-N-[5-fluoro-4-[4-[4-(oxetan-3-yl)piperazine-1-carbonyl]-1-piperidyl]-3-pyridyl]pyrazolo[1,5-a]pyrimidine-3-carboxamide], the values for the Ki in assay [1] and in assay [2] (setting [4]) were < 20 nM and 10 to 1000 nM, respectively.

On to `Nc1nn2cc(F)cnc2c1C(=O)Nc1cncc(F)c1N1CCC(C(=O)N2CCN3CCC2CC3)CC1` [I-G-7, N-(4-(4-(1,4-diazabicyclo[3.2.2]nonane-4-carbonyl)piperidin-1-yl)-5-fluoropyridin-3-yl)-2-amino-6-fluoropyrazolo[1,5-a]pyrimidine-3-carboxamide], for which the Ki in assay [1] was < 20 nM; in assay [2], 10 to 1000 nM.

On to `Nc1nn2cc(F)cnc2c1C(=O)Nc1cnccc1N1CCN(C2COC2)CC1` [I-N-1, 2-amino-6-fluoro-N-(4-(4-(oxetan-3-yl)piperazin-1-yl)pyridin-3-yl)pyrazolo[1,5-a]pyrimidine-3-carboxamide], for which the Ki in assay [1] was < 20 nM; in assay [2] (setting [4]) it was 10 to 1000 nM.

Regarding `COC1CN(C(=O)C2CCN(c3c(F)cncc3NC(=O)c3c(N)nn4cc(F)cnc34)CC2)C1` [I-G-21, 2-amino-6-fluoro-N-(5-fluoro-4-(4-(3-methoxyazetidine-1-carbonyl)piperidin-1-yl)pyridin-3-yl)pyrazolo[1,5-a]pyrimidine-3-carboxamide], the values for the Ki in assay [1] and in assay [2] (setting [4]) were < 20 nM and 10 to 1000 nM, respectively.

Consider `CN1CCN(C(=O)c2ccc(-c3ccncc3NC(=O)c3c(N)nn4cc(F)cnc34)cc2)CC1` [I-C-25, 2-amino-6-fluoro-N-(4-(4-(4-methylpiperazine-1-carbonyl)phenyl)pyridin-3-yl)pyrazolo[1,5-a]pyrimidine-3-carboxamide], for which the Ki in assay [1] is < 20 nM; in assay [2] (setting [4]), 10 to 1000 nM.

In the case of `Cc1nnccc1-c1ccncc1NC(=O)c1c(N)nn2cc(F)cnc12` [I-C-31, 2-amino-6-fluoro-N-(4-(3-methylpyridazin-4-yl)pyridin-3-yl)pyrazolo[1,5-a]pyrimidine-3-carboxamide], the Ki is < 20 nM in assay [1] and 10 to 1000 nM in assay [2] (setting [4]).

Consider `Nc1nn2cc(F)cnc2c1C(=O)Nc1cncc(F)c1N1CCC(C(=O)N2CCNCC2)CC1` [I-G-12, 2-amino-6-fluoro-N-(5-fluoro-4-(4-(piperazine-1-carbonyl)piperidin-1-yl)pyridin-3-yl)pyrazolo[1,5-a]pyrimidine-3-carboxamide], for which the Ki in assay [1] is < 20 nM; in assay [2] (setting [4]), 10 to 1000 nM.

For `CNCCCN(C)C(=O)C1CCN(c2c(F)cncc2NC(=O)c2c(N)nn3cc(F)cnc23)CC1` [I-G-17], in assay [2] (setting [4]), the Ki is 1000 to 5000 nM. Moreover, the “Cisplatin Sensitization Assay” value in assay [3] was “+ (Compounds with a Cisplatin sensitization value >0.2 μM but <5 μM are marked with “+.”)”.

On to `N#CCc1cnc2c(C(=O)Nc3cnccc3N3CCOC(CN)C3)c(N)nn2c1` (centres unmarked) [I-N-90, 2-amino-N-(4-(2-(aminomethyl)morpholino)pyridin-3-yl)-6-(cyanomethyl)pyrazolo[1,5-a]pyrimidine-3-carboxamide], for which, in assay [2] (setting [4]), the Ki lay within 10 to 1000 nM.

The values above are taken from US10392391B2 (Vertex Pharmaceuticals Incorporated, priority 2012, dated 2019).
